One block for each molecule: values may come before it. Starred links: 1 amine or outer side, 2 acyl side, 3 side chain; linkers in the order of their positions; H or OH if unused. Non-standard residues stand in square brackets, D forms with d. Residues, ends and D or L forms follow the SMILES beside them. Groups on a side chain read outwards from the residue. *: point of attachment. DOTA = O=C(O)CN1CCN(CC(=O)O)CCN(CC(=O)*)CCN(CC(=O)O)CC1; NH(2-(imidazol-4-yl)ethyl) = c1ncc(CCN*)[nH]1; Suc = O=C(CCC(=O)[*:2])[*:1]; X1 = NC(=S)NN=CC(=O)*
Tests used:
[1] = test system: human colonic tumor (GW-39) xenograft; experiment: in vivo; set-up: species or system nude mice; conditions: mouse
Protocol: (§1) IMP-245 was prepared and labeled using standard techniques known in the art. See, for example, published application US20030198595 (now issued U.S. Pat. No. 7,138,103), which is hereby incorporated by reference in its entirety. The experiment used 3 groups of 15 mice, each of which was necropsied, and 1 group of 5 mice that was imaged. Three groups of mice were administered 6 μCi ^125I-hBS14 (40 μg, 5.0×10^−10 moles). In the last group (imaging group), 3 mice received unlabeled hBS14. The amount of ^99mTc-IMP-245 administered to all the mice was ˜40 μCi (92 ng, 5.0×10^−11 moles) for a bispecific:peptide ratio of 10:1. […] Due to differences in tumor growth rates, only 20 mice were initially available for administration of hBS14. Fifteen mice were used to fill out Group II while 5 mice were used for Group I. The remaining mice (including the imaged mice) were injected one week later. Not all the mice implanted with GW-39 tumors developed usable tumors and, therefore, Group I only had 10 mice and were sacrificed at 1 hr post-peptide injection and 24 hrs post-injection.

[2] = in vivo; set-up: species or system nude mice; conditions: nude, mouse
Protocol: as §1

[3] = test system: GW-39 (CEA positive) tumors; set-up: species or system nude mice; conditions: mouse, in vivo
Protocol: The utility of BS14HP for tumor pretargeting was evaluated in GW-39 tumor-bearing mice using a bivalent HSG peptide (IMP-241) labeled with ^111In. IMP-241 has a structure of DOTA-Phe-Lys(HSG)-D-Tyr-Lys(HSG)-NH2, where the N-terminal amino group of Phe is linked to a DOTA and the epsilon amino group of each lysine is derivatived with an HSG group. The tetrapeptide backbone (Phe-Lys-(D-Tyr)-Lys) contains a d-amino acid (D-Tyr) and the carboxyl group of the C-terminal lys is amidated.
(§2) The results from this analysis were compared with those of chemically linked hMN-14×679 (Fab′×Fab′) and BS1.5H (bispecific diabody). Nude mice bearing GW-39 (CEA positive) tumors were pre-targeted with BS14HP, BS1.5H or hMN-14×679. Initially, the bio-distribution was followed with ^131I-labeled bispecific agent. The tumor residence and blood clearance of ^131I-BS14HP is depicted in FIG. 7. As determined in preliminary experiments, the time interval between administration of bispecific targeting agent and of ^111In-IMP241 peptide is the amount of time required for the former to clear the blood to a concentration of 1% ID/g or less. […] IMP-241 (Immunomedics, Inc), a peptide containing two HSG groups and a DOTA moiety, was loaded with ^111Indium and injected in pre-targeted mice. The bio-distribution of the ^111In-IMP-241 was examined at 3 hours after injection (FIG. 8A) and the tumor/non-tumor ratios are shown in FIG. 8B.

[4] = Blood clearance of radioiodinated bispecific agents in GW-39 tumor-bearing nude mice; assay type: in vivo; conditions: 131I-labeled bispecific agent, preliminary experiments
Source text: as §2

[5] = test system: WI2 IgG, an anti idiotypic antibody to hMN-14; experiment: BIAcore WI2 molar binding ratio of bispecific protein captured on HSG sensorchip; set-up: species or system rat; conditions: protein bound to HSG sensorchip, then WI2; theoretical maximum 1.0 for two CEA binding sites
Protocol: The analysis step is as follows. Samples of the culture media were diluted 1:5 in EB buffer (150 mM NaCl; 50 μM EDTA; 0.005% surfactant P20; 10 mM HEPES, pH 7.4) and injected ([…]) over a high-density, HSG-coupled sensorchip in a BIAcoreX system. Following injection of the diluted media, EB containing 20 μg/ml of WI2 IgG, an anti idiotypic antibody to hMN-14, was injected ([…]) over the sensorchip to confirm bispecific binding. The initial binding slopes were used to quantitate yields. Seven of the nine zeocin resistant clones tested produced bispecific protein with a yield of up to 3 mg per liter of culture media.
The W12:BS14HP molar binding ratio can be derived by comparison of the response units (RU) attained from BS14HP binding to the HSG sensorchip with the further RU increase from W12 binding to BS14HP with normalization for the respective molecular weights. Several BS14HP preps were analyzed with the measured ratio ranging from 0.8-0.9. […]
If the W12 binding is allowed to approach saturation, the stoichiometry of the binding can be determined. […] As each increase in RU level is directly proportional to the mass bound, the WI2:bsAb molar binding ratio can be calculated using the formula (RUWI2/RUhBS14)×(MWhBS14/MWWI2). hBS14 was designed to be bivalent for CEA (and monovalent for HSG) and as such should bind W12 (also bivalent) with a 1:1 molar ratio. […]

Molecule: NC(=O)[C@@H](CCCCNC(=O)CNC(=O)CCC(=O)NCCc1cnc[nH]1)NC(=O)[C@@H](Cc1ccc(O)cc1)NC(=O)[C@@H](CCCCNC(=O)CNC(=O)CCC(=O)NCCc1cnc[nH]1)NC(=O)[C@@H](Cc1ccccc1)NC(=O)CN1CCN(CC(=O)O)CCN(CC(=O)O)CCN(CC(=O)O)CC1 [IMP284] ({DOTA}-[dF][dK]([Gly-Suc-NH(2-(imidazol-4-yl)ethyl)])[dY][dK]([Gly-Suc-NH(2-(imidazol-4-yl)ethyl)])-NH2)
pretargeting experiments performed again with other peptides [3]: same results

Molecule: NC(=O)[C@@H](CCCCNC(=O)CNC(=O)CCC(=O)NCCc1c[nH]cn1)NC(=O)[C@@H](CCC(=O)O)NC(=O)[C@@H](CCCCNC(=O)CNC(=O)CCC(=O)NCCc1c[nH]cn1)NC(=O)[C@@H](Cc1ccc(O)cc1)NC(=O)CN1CCN(CC(=O)O)CCN(CC(=O)O)CCN(CC(=O)O)CC1 [IMP288] ({DOTA}-[dY][dK]([Gly-Suc-NH(2-(imidazol-4-yl)ethyl)])[dE][dK]([Gly-Suc-NH(2-(imidazol-4-yl)ethyl)])-NH2)
pretargeting experiments performed again with other peptides [3]: same results

Continued, in another order:

fold less peptide than hBS14 in the tumor [1]: 4.7 fold
fold more IMP-245 in the tumor versus hBS14 [1]: 2.4 fold
fold more IMP-245 than hBS14 in the tumors [1]: Approximately 2 fold
relative amount of actual signal in the tumors, fold less [1]: 13 fold
tumor uptake ([1]; nude, 4 h): 14.53±4.90 % ID/g
tissue uptake at 1 h [2]: 36.9 ± 6.42 %ID/g
tissue uptake at 24 h [2]: 3.81 ± 0.8 %ID/g
tissue uptake at 24 h ([2]; 92 ng): 3.71 ± 0.43 %ID/g
tissue uptake at 24 h ([2]; 92 ng, tumor uptake): 0.3 ± 0.08 %ID/g
tissue uptake at 4 h ([2]; tumor uptake): 15.9 ± 16.3 %ID/g
Molecule: NC(=O)[C@H](CCCCNC(=O)[C@H](CS)NC(=O)C=NNC(N)=S)NC(=O)[C@H](CCCCNC(=O)CNC(=O)CCC(=O)NCCc1c[nH]cn1)NC(=O)[C@@H](Cc1ccc(O)cc1)NC(=O)[C@H](CCCCNC(=O)CNC(=O)CCC(=O)NCCc1c[nH]cn1)NC(=O)[C@H](Cc1ccccc1)NC(=O)CN1CCN(CC(=O)O)CCN(CC(=O)O)CCN(CC(=O)O)CC1 [IMP-245] ({DOTA}-FK([Gly-Suc-NH(2-(imidazol-4-yl)ethyl)])[dY]K([Gly-Suc-NH(2-(imidazol-4-yl)ethyl)])K([Cys-X1])-NH2; N-terminus and C-terminus assumed)

pretargeting experiments performed again with other peptides [3]: same results
Molecule: C[C@@H](NC(=O)CN1CCN(CC(=O)O)CCN(CC(=O)O)CCN(CC(=O)O)CC1)C(=O)N[C@H](CCCCNC(=O)CNC(=O)CCC(=O)NCCc1cnc[nH]1)C(=O)N[C@H](CCC(=O)O)C(=O)N[C@H](CCCCNC(=O)CNC(=O)CCC(=O)NCCc1cnc[nH]1)C(N)=O [IMP281] ({DOTA}-[dA][dK]([Gly-Suc-NH(2-(imidazol-4-yl)ethyl)])[dE][dK]([Gly-Suc-NH(2-(imidazol-4-yl)ethyl)])-NH2)

WI2:bsAb molar binding ratio [5]: 0.8-0.9
B1: BS14HP: bispecific trivalent heterodimer (SEQ ID NO:1 and 2) from Pichia pastoris, two binding sites for CEA and one for HSG (antibody)
heavy: EAEAEFMEVQLVESGGDLVKPGGSLKLSCAASGFTFSIYTMSWLRQTPGKGLEWVATLSGDGDDIYYPDSVKGRFTISRDNAKNSLYLQMNSLRAEDTALYYCARVRLGDWDFDVWGQGTTVSVSSGGGGSDIQLTQSPSSLSASVGDRVTITCKASQDVGTSVAWYQQKPGKAPKLLIYWTSTRHTGVPSRFSGSGSGTDFTFTISSLQPEDIATYYCQQYSLYRSFGQGTKVEIKRLEGGGSEVQLVESGGGVVQPGRSLRLSCSASGFDFTTYWMSWVRQAPGKGLEWIGEIHPDSSTINYAPSLKDRFTISRDNAKNTLFLQMDSLRPEDTGVYFCASLYFGFPWFAYWGQGTPVTVSVDHHHHHH
light: EAEAEFDIQLTQSPSSLSASVGDRVTITCKASQDVGTSVAWYQQKPGKAPKLLIYWTSTRHTGVPSRFSGSGSGTDFTFTISSLQPEDIATYYCQQYSLYRSFGQGTKVEIKRGGGQFMEVQLVESGGGVVQPGRSLRLSCSASGFDFTTYWMSWVRQAPGKGLEWIGEIHPDSSTINYAPSLKDRFTISRDNAKNTLFLQMDSLRPEDTGVYFCASLYFGFPWFAYWGQGTPVTVSGGGGSDIVMTQSPSSLAVSPGERVTLTCKSSQSLFNSRTRKNYLGWYQQKPGQSPKLLIYWASTRESGVPDRFSGSGSGTDFTLTINSLQAEDVAVYYCTQVYYLCTFGAGTKLELKRLDHHHHHH
111In-IMP241 peptide specifically bound to the tumor, compared to mice pretargeted with BS1.5H or hMN14×679 [3]: approximately three-fold
pre-targeting clearance time (time to clear the blood to 1% ID/g or less) [4]: 24 h
